Results taken from US8546414B2, “Ion channel modulators and methods of use” (Vertex Pharmaceuticals Incorporated, priority 2004, dated 2013).

Assays:
Type in all cases: cell-based
[1] = molecular target: T1, CaV2.2 (Homo sapiens, UniProt Q00975); test: VIPR optical membrane potential assay with electrical stimulation, CaV2.2; details: Table 9, CaV 2.2 receptors
T1 construct: expressed in transfected cells; host or cells: HEK293
In short: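 HEK293 cells stably expressing CaV2.2 stained with CC2-DMPE/DiSBAC2(3) voltage-sensitive dyes (10 μM final CC2-DMPE, 30 min, RT), then compound added and cells electrically stimulated for 3-5 s. Read-out: background-subtracted 460/580 nm emission ratio; response R=Rf/Ri (post- vs pre-stimulus ratio); antagonism seen as reduced response.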

[2] = molecular target: T2, NaV1.3 (Homo sapiens, UniProt Q9NY46); test: VIPR optical membrane potential assay with electrical stimulation, NaV1.3; details: Table 9, NaV 1.3 receptors
T2 construct: expressed in transfected cells; host or cells: HEK293
In short: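 HEK293 cells stably expressing NaV1.3, stained with CC2-DMPE (10 μM final) then DiSBAC2(3) with ABSC1, 30 min each at RT; compounds added with oxonol. Electrical stimulation for 3 s; 460/580 nm background-subtracted emission ratio Rf/Ri, normalised to tetracaine (positive) and untreated (negative) controls.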

[3] = molecular target: NaV1.8 (Homo sapiens, UniProt Q9Y5Y9); test: VIPR optical membrane potential assay, NaV1.8 (other subtypes in an analogous mode); details: Table 9, NaV 1.8 receptors
Description: Antagonist properties of test compounds were assessed as follows. Cells expressing the NaV of interest were placed into microtiter plates. After an incubation period, the cells were stained with fluorescent dyes sensitive to the transmembrane potential. The test compounds were added to the microtiter plate. The cells were stimulated with either chemical or electrical means to evoke a NaV dependent membrane potential change from unblocked channels, which was detected and measured with trans-membrane potential-sensitive dyes. Antagonists were detected as a decreased membrane potential response to the stimulus.
24 hours before the assay on VIPR, CHO cells endogenously expressing a NaV 1.2 type voltage-gated NaV are seeded in 96-well poly-lysine coated plates at 60,000 cells per well. […] Plates are incubated in the dark for 30 minutes at room temperature. • 4) While the cells are being stained with coumarin, a […] oxonol solution in BS#2 is prepared. […] As before, the residual volume should be 40 μL. • 6) Upon removing the bath, the cells are loaded with 80 μL of the DiSBAC2(3) solution, after which test compound, dissolved in DMSO, is added to achieve the desired test concentration to each well from the drug addition plate and mixed thoroughly. The volume in the well should be roughly 121 μL. The cells are then incubated for 20-30 minutes. • 7) Once the incubation is complete, the cells are ready to be assayed on VIPR® with a sodium addback protocol. 120 μL of Bath solution #1 is added to stimulate the NaV dependent depolarization. […] tetracaine was used as an antagonist positive control for block of the NaV channel. Analysis of VIPR® Data:
The following is an example of how NaV1.3 inhibition activity is measured using the optical membrane potential method#2. Other subtypes are performed in an analogous mode in a cell line expressing the NaV of interest.

NaV1.8, sequence (Q9Y5Y9 whole entry): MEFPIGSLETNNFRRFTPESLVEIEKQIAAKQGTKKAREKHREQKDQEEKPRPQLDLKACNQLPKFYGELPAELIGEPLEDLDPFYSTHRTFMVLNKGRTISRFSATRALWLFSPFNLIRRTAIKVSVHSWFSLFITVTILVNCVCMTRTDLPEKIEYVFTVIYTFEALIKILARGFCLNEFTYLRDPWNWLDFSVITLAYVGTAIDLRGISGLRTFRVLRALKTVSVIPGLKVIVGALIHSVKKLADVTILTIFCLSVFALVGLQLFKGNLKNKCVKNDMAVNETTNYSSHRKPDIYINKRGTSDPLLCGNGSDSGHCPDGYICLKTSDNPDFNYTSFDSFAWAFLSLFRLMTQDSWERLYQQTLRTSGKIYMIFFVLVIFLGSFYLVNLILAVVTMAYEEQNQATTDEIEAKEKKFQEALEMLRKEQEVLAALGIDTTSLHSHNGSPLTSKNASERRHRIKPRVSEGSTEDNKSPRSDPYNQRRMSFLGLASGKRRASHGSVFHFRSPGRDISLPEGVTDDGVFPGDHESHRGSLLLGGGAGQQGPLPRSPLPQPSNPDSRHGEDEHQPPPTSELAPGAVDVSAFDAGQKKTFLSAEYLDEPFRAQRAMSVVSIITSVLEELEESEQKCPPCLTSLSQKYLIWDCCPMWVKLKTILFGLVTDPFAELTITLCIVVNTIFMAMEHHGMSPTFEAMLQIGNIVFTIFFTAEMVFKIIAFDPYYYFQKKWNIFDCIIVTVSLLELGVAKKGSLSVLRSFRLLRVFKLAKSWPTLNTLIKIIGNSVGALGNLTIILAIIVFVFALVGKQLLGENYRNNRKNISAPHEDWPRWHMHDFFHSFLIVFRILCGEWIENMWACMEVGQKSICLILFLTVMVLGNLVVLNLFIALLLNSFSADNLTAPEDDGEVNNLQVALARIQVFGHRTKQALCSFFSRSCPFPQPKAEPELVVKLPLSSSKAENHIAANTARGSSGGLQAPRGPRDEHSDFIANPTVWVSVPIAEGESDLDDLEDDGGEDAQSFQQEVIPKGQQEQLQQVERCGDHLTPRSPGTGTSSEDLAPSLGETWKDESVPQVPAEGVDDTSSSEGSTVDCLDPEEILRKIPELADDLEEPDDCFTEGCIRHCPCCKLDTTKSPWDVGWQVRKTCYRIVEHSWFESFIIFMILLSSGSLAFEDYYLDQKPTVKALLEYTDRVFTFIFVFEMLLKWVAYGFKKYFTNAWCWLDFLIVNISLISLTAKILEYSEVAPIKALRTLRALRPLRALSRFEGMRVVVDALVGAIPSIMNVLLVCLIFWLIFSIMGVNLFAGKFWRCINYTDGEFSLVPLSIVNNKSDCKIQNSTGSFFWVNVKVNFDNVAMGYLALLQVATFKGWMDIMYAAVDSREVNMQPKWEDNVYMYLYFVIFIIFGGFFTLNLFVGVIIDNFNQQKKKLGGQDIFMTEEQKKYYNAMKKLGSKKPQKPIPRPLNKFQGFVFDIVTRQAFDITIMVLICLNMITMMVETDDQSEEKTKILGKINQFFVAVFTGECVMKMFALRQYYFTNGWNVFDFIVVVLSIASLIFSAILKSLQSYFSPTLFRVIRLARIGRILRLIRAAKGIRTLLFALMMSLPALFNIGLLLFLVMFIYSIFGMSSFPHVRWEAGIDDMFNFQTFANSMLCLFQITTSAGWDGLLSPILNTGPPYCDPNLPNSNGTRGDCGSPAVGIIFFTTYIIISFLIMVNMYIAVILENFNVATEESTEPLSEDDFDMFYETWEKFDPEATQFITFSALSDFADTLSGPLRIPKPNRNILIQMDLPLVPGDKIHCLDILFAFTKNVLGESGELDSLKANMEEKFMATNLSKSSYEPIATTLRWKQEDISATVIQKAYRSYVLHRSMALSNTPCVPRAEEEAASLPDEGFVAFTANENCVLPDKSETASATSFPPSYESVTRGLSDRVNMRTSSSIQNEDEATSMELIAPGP
T2 sequence (Q9NY46 whole entry): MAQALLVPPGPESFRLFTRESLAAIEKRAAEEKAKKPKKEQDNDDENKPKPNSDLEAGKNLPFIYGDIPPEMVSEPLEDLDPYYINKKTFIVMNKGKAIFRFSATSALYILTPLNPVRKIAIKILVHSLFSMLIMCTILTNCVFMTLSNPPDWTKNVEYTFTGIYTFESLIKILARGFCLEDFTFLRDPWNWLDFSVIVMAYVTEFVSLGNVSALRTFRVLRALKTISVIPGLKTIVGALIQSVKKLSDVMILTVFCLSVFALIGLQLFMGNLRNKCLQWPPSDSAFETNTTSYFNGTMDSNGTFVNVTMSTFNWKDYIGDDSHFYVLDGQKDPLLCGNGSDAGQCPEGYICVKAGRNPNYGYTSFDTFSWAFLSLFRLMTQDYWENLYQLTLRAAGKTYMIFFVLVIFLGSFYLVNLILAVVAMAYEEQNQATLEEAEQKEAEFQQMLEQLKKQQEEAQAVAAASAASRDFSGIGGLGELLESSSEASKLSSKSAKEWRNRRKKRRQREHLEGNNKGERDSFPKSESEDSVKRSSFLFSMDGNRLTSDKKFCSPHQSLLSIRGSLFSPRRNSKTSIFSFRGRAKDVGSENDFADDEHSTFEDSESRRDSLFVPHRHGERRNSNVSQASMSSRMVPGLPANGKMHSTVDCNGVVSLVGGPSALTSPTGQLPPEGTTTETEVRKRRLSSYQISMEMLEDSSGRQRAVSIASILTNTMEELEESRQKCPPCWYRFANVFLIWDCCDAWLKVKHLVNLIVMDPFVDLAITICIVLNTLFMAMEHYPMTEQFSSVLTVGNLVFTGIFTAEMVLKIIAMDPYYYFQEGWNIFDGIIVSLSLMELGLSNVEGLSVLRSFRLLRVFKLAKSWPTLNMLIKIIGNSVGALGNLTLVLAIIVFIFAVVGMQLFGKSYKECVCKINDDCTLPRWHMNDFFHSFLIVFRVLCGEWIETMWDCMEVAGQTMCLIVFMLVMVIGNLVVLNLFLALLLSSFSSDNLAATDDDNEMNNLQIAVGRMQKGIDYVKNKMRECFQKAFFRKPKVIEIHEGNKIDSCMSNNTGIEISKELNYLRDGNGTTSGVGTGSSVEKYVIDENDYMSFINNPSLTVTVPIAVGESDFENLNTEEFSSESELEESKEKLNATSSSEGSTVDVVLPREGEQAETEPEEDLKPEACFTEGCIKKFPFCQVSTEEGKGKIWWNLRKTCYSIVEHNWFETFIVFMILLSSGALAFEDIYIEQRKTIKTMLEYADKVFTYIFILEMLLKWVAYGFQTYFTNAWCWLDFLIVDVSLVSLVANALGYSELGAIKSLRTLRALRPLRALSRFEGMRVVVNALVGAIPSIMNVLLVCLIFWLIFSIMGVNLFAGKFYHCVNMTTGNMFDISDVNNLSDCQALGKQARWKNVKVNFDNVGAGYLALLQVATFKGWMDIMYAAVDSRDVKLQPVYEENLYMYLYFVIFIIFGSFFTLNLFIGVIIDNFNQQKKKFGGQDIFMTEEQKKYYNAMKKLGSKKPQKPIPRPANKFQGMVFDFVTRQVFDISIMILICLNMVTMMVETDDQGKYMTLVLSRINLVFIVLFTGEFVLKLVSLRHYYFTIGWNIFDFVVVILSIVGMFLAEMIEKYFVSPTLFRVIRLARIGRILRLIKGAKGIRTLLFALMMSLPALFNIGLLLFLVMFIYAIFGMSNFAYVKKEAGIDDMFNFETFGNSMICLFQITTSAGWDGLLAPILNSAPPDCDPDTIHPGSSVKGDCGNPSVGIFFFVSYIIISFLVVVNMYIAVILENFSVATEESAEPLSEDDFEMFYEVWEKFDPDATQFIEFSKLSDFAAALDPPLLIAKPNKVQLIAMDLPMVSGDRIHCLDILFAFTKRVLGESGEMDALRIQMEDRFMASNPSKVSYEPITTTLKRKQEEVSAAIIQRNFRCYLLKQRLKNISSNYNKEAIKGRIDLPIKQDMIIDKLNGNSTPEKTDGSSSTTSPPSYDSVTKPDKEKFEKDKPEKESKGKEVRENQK

| Compound | IC50 [1] [µM] | IC50 [2] [µM] | IC50 [3] [µM] |
| --- | --- | --- | --- |
| O=C(c1cnc(N2CCSCC2)nc1-c1ccccc1F)N(Cc1ccc2c(c1)CCO2)C1CC1 [compound 30] | 2 to 10 | 2 to 10 | > 10 |
| Cc1nc(N2CCOCC2)nc(-c2ccccc2F)c1C(=O)N(Cc1ccc(C(C)(C)C)cc1)C(C)C [compound 31] | 2 to 10 | 2 to 10 | > 10 |
| Cc1nc(N2CCCCC2)nc(-c2ccccc2F)c1C(=O)N(Cc1ccc(C(C)(C)C)cc1)C(C)C [compound 32] | 2 to 10 | 2 to 10 | > 10 |
| O=C(NC1Cc2ccccc2C1)c1cnc(N2CCOCC2)nc1-c1ccccc1F [compound 33] | > 10 | > 10 | > 10 |
| COc1cccc(N(C(=O)c2cnc(N3CCC4CCCCC4C3)nc2-c2ccccc2F)C(C)C)c1 (stereo not drawn) [compound 34] | 2 to 10 | 2 to 10 | > 10 |
| COc1cccc(N(C(=O)c2cnc(N3CCCCC3)nc2-c2ccccc2F)C2CCOCC2)c1 [compound 35] | > 10 | > 10 | > 10 |
| COc1ccc(CN(C(=O)c2cnc(N3CCCCC3)nc2-c2ccccc2Cl)C2CC2)cc1 [compound 36] | 2 to 10 | 2 to 10 | > 10 |
| O=C(NC(CN1CCCC1)c1ccccc1)c1cnc(N2CCOCC2)nc1-c1ccccc1F (stereo not drawn) [compound 37] | > 10 | > 10 | > 10 |
| CN1CCN(c2ncc(C(=O)N(Cc3ccc(F)cc3)C3CC3)c(-c3ccccc3F)n2)CC1 [compound 39] | > 10 | > 10 | > 10 |
| O=C(c1cnc(N2CCOCC2)nc1-c1ccccc1F)N(Cc1cccc2ccccc12)C1CC1 [compound 40] | > 10 | 2 to 10 | > 10 |
| CC(C)N(C(=O)c1cnc(N2CCCCC2)nc1-c1ccccc1F)c1cccc(C(C)(C)C)c1 [compound 41] | > 10 | 2 to 10 | > 10 |
| COc1cccc(N(C(=O)c2cnc(N3CCCCC3)nc2-c2ccccc2F)C2CCCC2)c1 [compound 42] | 2 to 10 | 2 to 10 | > 10 |
| COc1ccc(N(C(=O)c2cnc(N3CCCCC3)nc2-c2ccccc2Cl)C(C)C)cc1 [compound 43] | 2 to 10 | 2 to 10 | > 10 |
| COc1ccccc1C1CCN(C(=O)c2cnc(N3CCOCC3)nc2-c2ccccc2F)CC1 [compound 44] | > 10 | 2 to 10 | 2 to 10 |
| CC(C)N(Cc1ccccc1)C(=O)c1cnc(N2CCC(O)C2)nc1-c1ccccc1F (stereo not drawn) [compound 45] | > 10 | > 10 | > 10 |
| O=C(NCCCc1ccccc1)c1cnc(N2CCOCC2)nc1-c1ccc(Oc2ccccc2)cc1 [compound 46] | > 10 | > 10 | > 10 |
| O=C(c1cnc(N2CCSCC2)nc1-c1ccccc1F)N(Cc1ccccc1)C1CCCCC1 [compound 47] | 2 to 10 | 2 to 10 | > 10 |
| O=C(c1cnc(N2CCSCC2)nc1-c1ccccc1F)N(Cc1ccc(F)cc1)C1CC1 [compound 48] | 2 to 10 | 2 to 10 | > 10 |
| CCC(COC)N(Cc1ccccc1)C(=O)c1c(C)nc(N2CCOCC2)nc1-c1ccccc1F (stereo not drawn) [compound 49] | > 10 | 2 to 10 | > 10 |
| CC(C)N(Cc1ccc(N2CCCC2)cc1)C(=O)c1cnc(N2CCCCC2)nc1-c1ccccc1F [compound 50] | 2 to 10 | > 10 | > 10 |
| CC(C)N(Cc1ccccc1)C(=O)c1cnc(Nc2ccc3c(c2)OCO3)nc1-c1ccccc1F [compound 51] | 2 to 10 | 2 to 10 | > 10 |
| CC1CCc2ccccc2N1C(=O)c1cnc(N2CCOCC2)nc1-c1ccccc1F (stereo not drawn) [compound 52] | 2 to 10 | 2 to 10 | > 10 |
| O=C(c1cnc(N2CCOCC2)nc1-c1ccccc1F)N(Cc1ccc2c(c1)CCO2)C1CC1 [compound 53] | 2 to 10 | 2 to 10 | > 10 |
